Test results reported in PubChem BioAssay (NCI).
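96-well plates; 48 h exposure; 5 concentrations. Endpoints by linear interpolation between flanking doses. Not reached: highest tested concentration assigned. GI50: concentration for 50% inhibition of growth. TGI marks complete inhibition of growth.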

Experiments:
Assay in all cases: DTP human tumour cell line panel, 48 h
HT29 colon = system: HT29 colon
A549 NSCLC = system: A549 NSCLC
SK-MEL-2 melanoma = system: SK-MEL-2 melanoma
SW-620 colon = system: SW-620 colon
SK-MEL-28 melanoma = system: SK-MEL-28 melanoma
MOLT-4 leukemia = system: MOLT-4 leukemia
NCI/ADR-RES ovarian = system: NCI/ADR-RES ovarian
HOP-62 NSCLC = system: HOP-62 NSCLC
UACC-62 melanoma = system: UACC-62 melanoma
HOP-92 NSCLC = system: HOP-92 NSCLC

Row | Compound | TGI (HT29 colon) | TGI (A549 NSCLC) | TGI (SK-MEL-2 melanoma) | TGI (SW-620 colon) | TGI (SK-MEL-28 melanoma) | TGI (MOLT-4 leukemia) | TGI (NCI/ADR-RES ovarian) | TGI (HOP-62 NSCLC) | TGI (UACC-62 melanoma) | TGI (HOP-92 NSCLC) | GI50 (HT29 colon) | GI50 (A549 NSCLC) | GI50 (SK-MEL-2 melanoma) | GI50 (SW-620 colon) | GI50 (SK-MEL-28 melanoma) | GI50 (MOLT-4 leukemia) | GI50 (NCI/ADR-RES ovarian) | GI50 (HOP-62 NSCLC)
1 | CC(C)CNC(=O)Cn1c(-c2ccccc2)cc2ccccc21 | > 100 µM | > 100 µM | > 100 µM | > 100 µM | > 100 µM | > 100 µM | > 100 µM | > 100 µM | > 100 µM | – | – | – | – | – | – | – | – | –
2 | CCCCOCn1c(=O)[nH]c(=O)c2cc(Br)ccc21 | > 100 µM | > 100 µM | > 100 µM | > 100 µM | > 100 µM | > 100 µM | 40.3 µM | – | > 100 µM | > 100 µM | – | – | – | – | – | – | – | –
3 | COc1cc(C2SCC(=O)N2c2ccc(Oc3ccc(Cl)cc3)c(Cl)c2)cc(OC)c1OC (centres undefined) | 33.7 µM | 69.2 µM | 32.2 µM | 58.3 µM | 35 µM | > 100 µM | 30.4 µM | 35.2 µM | 30.9 µM | – | – | – | – | – | – | – | – | –
4 | O=C(NCCCNCCNC(=O)c1cc(-c2ccccc2)nc2ccccc12)c1cc(-c2ccccc2)nc2ccccc12 | 2.91 µM | 3.13 µM | – | 3.09 µM | 3.26 µM | 4.31 µM | 4.12 µM | 3.06 µM | – | 6.37 µM | – | – | – | – | – | – | – | –
5 | COc1ccc(/C=C2\N=C(c3ccccc3)N(C3Nc4cc5c(cc4S3)NC(N3C(=O)/C(=C/c4ccc(OC)cc4)N=C3c3ccccc3)S5)C2=O)cc1 (centres undefined) | > 100 µM | > 100 µM | 97.5 µM | > 100 µM | > 100 µM | > 100 µM | 48 µM | > 100 µM | – | > 100 µM | – | – | – | – | – | – | – | –
6 | CC(=O)O[C@H]1C(=O)[C@@]2(C)[C@H]([C@H](OC(=O)c3ccccc3)[C@]3(O)C[C@H](OC(=O)[C@H](O)[C@@H](NC(=O)CC(C)(C)C)c4ccccc4)C(C)=C1C3(C)C)C1(OC(C)=O)CO[C@@H]1C[C@@H]2O (some centres undefined) | 0.0133 µM | > 10 µM | > 10 µM | > 10 µM | > 10 µM | > 3.96 µM | > 10 µM | – | > 10 µM | – | – | – | – | – | – | – | – | –
7 | CC(=O)N1CCN(C23OC4(N5CCN(C(C)=O)CC5)C5C6CC(C7C6C4C72)C53)CC1 (centres undefined) | > 100 µM | > 100 µM | > 100 µM | > 100 µM | – | > 100 µM | > 100 µM | > 100 µM | > 100 µM | > 100 µM | – | – | – | – | – | – | – | –
8 | CSC1=NS(=O)(=O)c2cc(C(=O)NN(C)C(=O)c3cc4c(cc3Cl)SC(SC)=NS4(=O)=O)c(Cl)cc2S1 | > 10 µM | > 10 µM | > 10 µM | > 10 µM | > 10 µM | > 10 µM | > 10 µM | > 10 µM | – | > 10 µM | – | – | – | – | – | – | – | –
9 | CC(C)OP(=O)(OC(C)C)C(C(C)C)N(C)/C(F)=N/C(F)(F)F (centres undefined) | > 100 µM | > 100 µM | – | > 100 µM | > 100 µM | > 100 µM | > 100 µM | > 100 µM | > 100 µM | > 100 µM | – | – | – | – | – | – | – | –
10 | CN(C)CCNc1ncnc2nc(-c3ccc4ccccc4c3)[nH]c12 | > 100 µM | > 100 µM | > 100 µM | > 100 µM | > 100 µM | > 100 µM | > 100 µM | > 100 µM | > 100 µM | – | – | – | – | – | – | – | – | –
11 | COc1c(C)c(OC)c2c(c1O)[C@@H]1[C@@H]3Cc4c(OC)c(C)c(OC)c(O)c4[C@H](CNC(=O)c4cnc5ccccc5n4)N3[C@@H](C#N)[C@H](C2)N1C | – | > 0.1 µM | 0.00733 µM | > 0.0313 µM | 0.00733 µM | 0.00262 µM | > 0.1 µM | > 0.1 µM | 0.00346 µM | 0.0129 µM | – | – | – | – | – | – | – | –
12 | COc1cc(S(=O)(=O)Nc2ccc(C3=NNC(c4ccccc4)C3)cc2)ccc1F (centres undefined) | > 100 µM | > 100 µM | > 100 µM | > 100 µM | > 100 µM | > 100 µM | > 100 µM | 80.4 µM | 45.2 µM | – | 59.1 µM | 53.9 µM | > 100 µM | 44.4 µM | > 100 µM | 48.3 µM | 36.3 µM | 22.7 µM
13 | CC(=Nc1ccncc1)C(C)=Nc1ccncc1 | 38.2 µM | > 100 µM | 45.1 µM | > 100 µM | > 100 µM | 52.7 µM | > 100 µM | 49.4 µM | – | 83.5 µM | – | – | – | – | – | – | – | –
14 | Cc1ccc(N=Nc2c(C)c(C#N)c(=S)n(C3OC(CO)C(O)C(O)C3O)c2-c2ccccc2)cc1 (centres undefined) | 89.2 µM | > 100 µM | 45.6 µM | 36.3 µM | 43 µM | 38.9 µM | > 100 µM | 54.2 µM | 32 µM | – | – | – | – | – | – | – | – | –
15 | CC(=O)OCC=C(CCl)CCC(Br)C(C)(C)Br (mixture of isomers) | > 10 µM | > 10 µM | > 10 µM | > 10 µM | > 10 µM | > 10 µM | > 10 µM | > 10 µM | > 10 µM | – | – | – | – | – | – | – | – | –
16 | Cc1sc2ccccc2[n+]1CCC(=O)O | > 100 µM | > 100 µM | > 100 µM | > 100 µM | > 100 µM | – | > 100 µM | > 100 µM | > 100 µM | > 100 µM | – | – | – | – | – | – | – | –
17 | Cc1c(-c2ccccc2)c(C#N)c2nnc(C(N)=O)c(N)n12 | > 100 µM | > 100 µM | > 100 µM | > 100 µM | > 100 µM | > 100 µM | > 100 µM | > 100 µM | > 100 µM | – | – | – | – | – | – | – | – | –
18 | S=C(S)NCC1CCC(CNC(=S)S)CC1 (centres undefined) | 42.3 µM | > 100 µM | 58.3 µM | > 100 µM | > 100 µM | 65.2 µM | > 100 µM | 42.9 µM | > 100 µM | – | – | – | – | – | – | – | – | –
19 | NNC(=S)N1CCN(C(=S)NN)CC1 | > 100 µM | > 100 µM | > 100 µM | > 100 µM | > 100 µM | > 100 µM | – | > 100 µM | > 100 µM | > 100 µM | – | – | – | – | – | – | – | –
20 | COc1cc(/C=C2\CCC(C)C3=C2NC(=S)NC3c2cc(OC)c(OC)c(OC)c2)cc(OC)c1OC (centres undefined) | > 100 µM | > 100 µM | > 100 µM | > 100 µM | > 100 µM | 92.4 µM | – | > 100 µM | > 100 µM | > 100 µM | – | – | – | – | – | – | – | –
21 | O=c1[nH]c(Nc2cccc(Cl)c2)nc2nc[nH]c12 | > 100 µM | > 100 µM | > 100 µM | > 100 µM | – | > 100 µM | > 100 µM | > 100 µM | > 100 µM | > 100 µM | – | – | – | – | – | – | – | –
22 | CCO/C(O)=C(/C(=N)N1CCCC1)C(=O)Nc1cccc(C(F)(F)F)c1 | > 100 µM | > 100 µM | > 100 µM | > 100 µM | > 100 µM | > 100 µM | > 100 µM | > 100 µM | > 100 µM | – | – | – | – | – | – | – | – | –
